The pIC50 is −log10 of the IC50, conventionally taken in molar units. Broadly, the inhibition is the drop in the measured response relative to a control, in per cent. The term pKd denotes −log10 of the Kd, conventionally taken in molar units. A higher pKd goes with a small Kd.

pIC50, pKd: −log10 of the molar value. Several values for one entry are separate records, joined by “and”; a condition that tells them apart may be missing. Equal entries are not always repeated. Structures can show the parent of a compound that is named as a salt.

Assay [1] concerns the target T1, human RORγt LBD (Homo sapiens, UniProt P51449).
T1 construct: expressed in transfected cells; host or cells: HEK293T
T1 sequence (P51449 258-518): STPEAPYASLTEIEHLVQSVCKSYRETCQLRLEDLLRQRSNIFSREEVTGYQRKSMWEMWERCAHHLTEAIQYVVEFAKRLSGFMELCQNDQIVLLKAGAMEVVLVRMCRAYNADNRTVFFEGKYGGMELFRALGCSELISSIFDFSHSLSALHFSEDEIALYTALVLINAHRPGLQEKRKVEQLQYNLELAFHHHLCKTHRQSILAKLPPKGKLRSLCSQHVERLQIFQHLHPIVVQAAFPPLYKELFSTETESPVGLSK
The experiment in a line: RORγt (LBD) reporter assay in HEK293T cells. The class given is cell-based. The note with it: for inhibition at 6 µM: HEK-293T, read-out: RORγt (LBD) Reporter Assay, % inhibition @ 6 μM, 6 μM compound; for RORγt (LBD) Reporter Assay, % inhibition @ 6 μM: 6 μM compound. An excerpt:
RORγt (LBD) Reporter Assay
Cells used in the assay were co-transfected with two constructs. The first construct, pBIND-RORγt LBD, contained the wild type human RORγt LBD fused to the DNA binding domain of the GAL4 protein. The second construct, pGL4.31 (Promega Cat no. C935A), contained multiple GAL4 responsive DNA elements upstream of firefly luciferase. […] The mutant construct was called pBIND-RORγt-AF2.
The pBIND vector contains the GAL4 DNA Binding Domain (GAL4 DBD) and the renilla luciferase gene under control of the SV40 promoter. Renilla luciferase expression serves as a control for transfection efficiency and cell viability.
The reporter assay was performed by transiently transfecting HEK293T cells with 5 μg of pBIND-RORγt LBD or pBIND-RORγt LBD-AF2 and 5 μg pGL4.31 (Promega Cat no. C935A) using Fugene 6 (Invitrogen Cat no. E2691) at a 1:6 ratio of DNA:Fugene 6 in a T-75 flask in which cells were at least 80% confluent. Twenty four hours after bulk transfection, cells were plated into 96-well plates at 50,000 cells/well in phenol-red free DMEM containing 5% Lipid Reduced FCS and Pen/Strep. Six hours after plating, cells were treated with compounds for 24 hours. Media was removed and cells were lysed with 50 μL 1× Glo Lysis Buffer (Promega). Dual Glo Luciferase Reagent (50 μL/well) was then added and firefly luciferase luminescence was read on an Envision after a ten minute incubation. Finally, Stop and Glo reagent (50 μL/well) was added and renilla luciferase luminescence was read on an Envision after a ten minute incubation. […] Agonist compounds increase RORγt-driven luciferase expression, and antagonist or inverse agonist compounds decrease luciferase expression.
A general note: A reporter such as luciferase makes a cellular process visible.

Assay [2] has as its target T2, human RORγt ligand binding domain (RORγt LBD) (Homo sapiens, UniProt P51449).
T2 construct: His-tag (N); TurboTEV protease cleavage site (ENLYFQG) (N); made in house; host or cells: E. coli (pHIS1, modified pET vector)
T2 sequence (P51449 with tags, fused parts or gaps): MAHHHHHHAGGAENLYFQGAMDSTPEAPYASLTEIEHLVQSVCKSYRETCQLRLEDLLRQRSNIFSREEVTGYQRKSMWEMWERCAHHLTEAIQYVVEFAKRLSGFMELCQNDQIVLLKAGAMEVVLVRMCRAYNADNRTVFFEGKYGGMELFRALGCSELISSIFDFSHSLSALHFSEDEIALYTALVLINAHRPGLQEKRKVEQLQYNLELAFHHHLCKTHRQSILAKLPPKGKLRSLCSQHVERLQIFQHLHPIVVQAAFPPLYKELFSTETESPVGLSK
The experiment in a line: RORγt ThermoFluor assay (ligand binding affinity from protein thermal stability). As to the method:
This approach is applicable to a wide variety of systems, and rigorous in theoretical interpretation through quantitation of equilibrium binding constants (KD).
The shift in the melting point described as a ΔTm is proportional to the concentration and affinity of the ligand.
RORγt ThermoFluor® Assay Construct
Protein and compound solutions are dispensed into black 384-well polypropylene PCR microplates (Abgene) and overlayed with silicone oil (1 μL, Fluka, type DC 200) to prevent evaporation.
Bar-coded assay plates are robotically loaded onto a thermostatically controlled PCR-type thermal block and then heated at a typical ramp-rate of 1° C./min for all experiments. Fluorescence was measured by continuous illumination with UV light (Hamamatsu LC6) supplied via fiber optic and filtered through a band-pass filter (380-400 nm; >6 OD cutoff). Fluorescence emission of the entire 384-well plate was detected by measuring light intensity using a CCD camera (Sensys, Roper Scientific) filtered to detect 500±25 nm, resulting in simultaneous and independent readings of all 384 wells. Images were collected at each temperature, and the sum of the pixel intensity in a given area of the assay plate was recorded versus temperature. Reference wells contained RORγt without compounds, and the assay conditions were as follows: • 0.065 mg/mL RORγt • 60 μM 1,8-ANS • 100 mM Hepes, pH 7.0 • 10 mM NaCl • 2.5 mM GSH • 0.002% Tween-20
Project compounds were arranged in a pre-dosed mother plate (Greiner Bio-one) wherein compounds are serially diluted in 100% DMSO by 1:2 from a high concentration of 10 mM over 12 columns within a series (column 12 is a reference well containing DMSO, no compound). The compounds were robotically dispensed directly into assay plates (1×=[…]) using a Hummingbird capillary liquid handling instrument (Digilab). Following compound dispense, protein and dye in buffer was added to achieve the final assay volume of 3 μL, followed by 1 μL of silicone oil.

For the compound `COc1nc2ccc(C(O)(c3ccc(Cl)cc3)c3cncn3C)cc2c(Cl)c1Cc1ccc(C(F)(F)F)nc1` (single isomer, unassigned) [Example 39b], in assay [1], the pIC50 is 5.92 and the inhibition at 6 µM turned out to be 86%. This compound had a pKd in assay [2] of 5.96.
The corresponding values for `COc1nc2ccc(C(O)(c3ccc(C)nc3C)c3cnnn3C)cc2c(Cl)c1Cc1ccc(F)cc1` (single isomer, unassigned) [Example 48b, (4-Chloro-3-(4-fluorobenzyl)-2-methoxyquinolin-6-yl)(2,6-dimethylpyridin-3-yl)(1-methyl-1H-1,2,3-triazol-5-yl)methanol] are about 5.22, 53% and 6.60.
`COc1nc2ccc(C(O)(c3ccc(C)nc3C)c3cnnn3C)cc2c(C#N)c1Cc1ccc(F)cc1` (single isomer, unassigned) [Example 49b, 6-((2,6-Dimethylpyridin-3-yl)(hydroxy)(1-methyl-1H-1,2,3-triazol-5-yl)methyl)-3-(4-fluorobenzyl)-2-methoxyquinoline-4-carbonitrile]: in assay [1], the negative logarithm of the IC50 (pIC50) is about 5.52 and the “RORγt (LBD) Reporter Assay, % inhibition @ 6 μM” value (shortened to “RORγt … % inhibition @ 6 μM”) came to 62%. This compound gave a pKd in assay [2] of 6.39.
As for `COc1nc2ccc(C(O)(c3ccc(C)nc3C)c3cnnn3C)cc2c(C#N)c1Cc1ccc(F)cc1` (single isomer, unassigned) [Example 49c, 6-((2,6-Dimethylpyridin-3-yl)(hydroxy)(1-methyl-1H-1,2,3-triazol-5-yl)methyl)-3-(4-fluorobenzyl)-2-methoxyquinoline-4-carbonitrile], in assay [1], the negative logarithm of the IC50 (pIC50) was 7.42 and ~7.70; the “RORγt … % inhibition @ 6 μM” value is given as 83%. For the same compound, in assay [2], the negative logarithm of the Kd (pKd) was 8.57.
Turning to `COc1nc2ccc(C(O)(c3cnnn3C)c3cnc(C)n3C)cc2c(Cl)c1Cc1ccc(F)cc1` (single isomer, unassigned) [Example 65b], in assay [1], the pIC50 was 7.66 and the inhibition at 6 µM came to 74%. In assay [2], the pKd is 10.02.
As for `COc1nc2ccc(C(O)(c3cnnn3C)c3cnc(C)n3C)cc2c(Cl)c1Cc1ccc(F)cc1` (single isomer, unassigned) [Example 65c], the pIC50 in assay [1] was 8.14. Also, the negative logarithm of the Kd (pKd) in assay [2] is 9.32.
`COc1c(Cc2ccccc2)c(C(F)(F)F)nc2ccc(C(O)(c3ccc(Cl)cc3)c3cncn3C)cc12` (single isomer, unassigned) [Example 101c, (3-Benzyl-4-methoxy-2-(trifluoromethyl)quinolin-6-yl)(4-chlorophenyl)(1-methyl-1H-imidazol-5-yl)methanol]: in assay [1], the “RORγt … % inhibition @ 6 μM” value is on record as 89%.
For `Cn1cncc1C(O)(c1ccc(C(F)(F)F)nc1)c1ccc2nc(-c3nccn3C)c(Cc3ccccc3)c(Cl)c2c1` (single isomer, unassigned) [Example 113c, (3-Benzyl-4-chloro-2-(1-methyl-1H-imidazol-2-yl)quinolin-6-yl)(1-methyl-1H-imidazol-5-yl)(6-(trifluoromethyl)pyridin-3-yl)methanol•TFA], the pIC50 in assay [1] is about 5.70. This compound showed a pKd in assay [2] of 5.92.
The like results for `Cn1cncc1C(O)(c1ccc(C(F)(F)F)nc1)c1ccc2nc(-n3cccn3)c(Cc3ccccc3)c(C#N)c2c1` (single isomer, unassigned) [Example 114b, 3-Benzyl-6-(hydroxy(1-methyl-1H-imidazol-5-yl)(6-(trifluoromethyl)pyridin-3-yl)methyl)-2-(1H-pyrazol-1-yl)quinoline-4-carbonitrile•TFA] were, in that order, 5.85 and 6.92.
`Cn1cncc1C(O)(c1ccc(C(F)(F)F)nc1)c1ccc2nc(-n3cccn3)c(Cc3ccccc3)c(C#N)c2c1` (single isomer, unassigned) [Example 114c, 3-Benzyl-6-(hydroxy(1-methyl-1H-imidazol-5-yl)(6-(trifluoromethyl)pyridin-3-yl)methyl)-2-(1H-pyrazol-1-yl)quinoline-4-carbonitrile•TFA] had a negative logarithm of the IC50 (pIC50) in assay [1] of 5.72. The compound further showed a negative-log Kd (pKd) in assay [2] of 6.15.
The like results for `CC(=O)N1CCC(C(O)(c2ccc3nc(C(F)(F)F)c(Cc4ccccc4)c(Cl)c3c2)c2cncn2C)CC1` (single isomer, unassigned) [Example 115b, 1-(4-((3-Benzyl-4-chloro-2-(trifluoromethyl)quinolin-6-yl)(hydroxy)(1-methyl-1H-imidazol-5-yl)methyl)piperidin-1-yl)ethanone•TFA] were, in that order, 6.32 and 7.24.
Take `CC(=O)N1CCC(C(O)(c2ccc3nc(C(F)(F)F)c(Cc4ccccc4)c(Cl)c3c2)c2cncn2C)CC1` (single isomer, unassigned) [Example 115c, 1-(4-((3-Benzyl-4-chloro-2-(trifluoromethyl)quinolin-6-yl)(hydroxy)(1-methyl-1H-imidazol-5-yl)methyl)piperidin-1-yl)ethanone•TFA]: in assay [1], the pIC50 was 6.96. Further, the pKd in assay [2] was 7.77.
The like results for `COc1nc2ccc(C(N)(c3ccc(C(F)(F)F)nc3)c3cncn3C)cc2c(Cl)c1Cc1ccccc1` (single isomer, unassigned) [Example 120b, (3-Benzyl-4-chloro-2-methoxyquinolin-6-yl)(1-methyl-1H-imidazol-5-yl)(6-(trifluoromethyl)pyridin-3-yl)methanamine•TFA] were, in that order, under 5.22 and 6.89.
With `CCN(CC)c1nc2ccc(C(O)(c3ccc(Cl)cc3)c3cncn3C)cc2c(C#N)c1Cc1ccc(-n2cccn2)cc1` (single isomer, unassigned) [Example 154b, 3-(4-(1H-pyrazol-1-yl)benzyl)-6-((4-chlorophenyl)(hydroxy)(1-methyl-1H-imidazol-5-yl)methyl)-2-(diethylamino)quinoline-4-carbonitrile], in assay [1], the inhibition at 6 µM is 101%.
On to `CCN(CC)c1nc2ccc(C(O)(c3ccc(Cl)cc3)c3cncn3C)cc2c(C#N)c1Cc1ccc(-n2cccn2)cc1` (single isomer, unassigned) [Example 154c, 3-(4-(1H-pyrazol-1-yl)benzyl)-6-((4-chlorophenyl)(hydroxy)(1-methyl-1H-imidazol-5-yl)methyl)-2-(diethylamino)quinoline-4-carbonitrile], for which, in assay [1], the inhibition at 6 µM amounted to 73%.
Consider `COc1c(Cc2ccccc2)c(C(F)(F)F)nc2ccc(C(O)(c3ccc(C(F)(F)F)nc3)c3cncn3C)cc12` (stereo not drawn) [Example 106a, (3-Benzyl-4-methoxy-2-(trifluoromethyl)quinolin-6-yl)(1-methyl-1H-imidazol-5-yl)(6-(trifluoromethyl)pyridin-3-yl)methanol•TFA], for which, in assay [1], the negative logarithm of the IC50 (pIC50) is about 5.40.

The record behind these values is patent US9284308B2, “Methylene linked quinolinyl modulators of RORγt” (Janssen Pharmaceutica NV, priority 2013, dated 2016).
